The nature of data set [1]: Solubility in 100 mM glycylglycine buffer at pH 5.0 incubated for 18 hrs by UPLC analysis. Type of data set: physicochemical.
A short description of data set [2]: Solubility in 100 mM bistrispropane buffer at pH 6.5 incubated for 18 hrs by UPLC analysis. Format: physicochemical.
Data set [3] is described as follows: Solubility in 100 mM glycylglycine buffer at pH 3.0 incubated for 18 hrs by UPLC analysis. Type of data set: physicochemical.
A short description of data set [4]: Solubility in 100 mM bistrispropane buffer at pH 7.5 incubated for 18 hrs by UPLC analysis. Format: physicochemical.
For data set [5], the target named is T1, Amylin receptor AMY3; CALCR/RAMP3 (Homo sapiens, UniProt O60896+P30988).
T1 sequence (P30988 whole entry): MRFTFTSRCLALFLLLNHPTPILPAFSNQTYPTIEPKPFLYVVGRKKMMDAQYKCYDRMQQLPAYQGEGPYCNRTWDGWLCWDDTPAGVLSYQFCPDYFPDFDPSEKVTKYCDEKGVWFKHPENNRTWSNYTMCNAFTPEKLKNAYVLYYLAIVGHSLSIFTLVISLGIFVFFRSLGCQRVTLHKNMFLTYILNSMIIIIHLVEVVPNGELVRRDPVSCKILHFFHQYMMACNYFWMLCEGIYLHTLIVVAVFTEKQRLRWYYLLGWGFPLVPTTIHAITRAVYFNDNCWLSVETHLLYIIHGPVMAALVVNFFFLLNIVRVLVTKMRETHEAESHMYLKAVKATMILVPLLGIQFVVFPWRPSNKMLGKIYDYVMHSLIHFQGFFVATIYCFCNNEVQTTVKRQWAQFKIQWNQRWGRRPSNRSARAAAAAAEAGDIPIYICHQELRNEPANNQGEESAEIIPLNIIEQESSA
T1 sequence (O60896 whole entry): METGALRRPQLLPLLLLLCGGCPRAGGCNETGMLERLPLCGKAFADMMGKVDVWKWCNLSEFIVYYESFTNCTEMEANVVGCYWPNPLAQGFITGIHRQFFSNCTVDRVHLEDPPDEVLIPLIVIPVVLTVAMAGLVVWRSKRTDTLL
Put plainly: Agonist activity at human amylin receptor expressed in BHK570 cells co-expressing RAMP3 assessed as increase in intracellular cAMP concentration incubated for 3 hrs in absence of albumin by CRE luciferase reporter gene assay. Format: functional, cell-based. For orientation: A reporter such as luciferase makes a cellular process visible.

A short description of data set [6]: Solubility in 100 mM glycylglycine buffer at pH 4.0 incubated for 18 hrs by UPLC analysis. Type of data set: physicochemical.
Data set [7] is described as follows: Solubility in 100 mM bistrispropane buffer at pH 6.0 incubated for 18 hrs by UPLC analysis. Type of data set: physicochemical.
Data set [8] in a line: Solubility in 100 mM bistrispropane buffer at pH 8.0 incubated for 18 hrs by UPLC analysis. Format: physicochemical.
The target of data set [9] is T1, Amylin receptor AMY3; CALCR/RAMP3. Put plainly: Displacement of [125I]-labeled rat amylin from human amylin receptor expressed in BHK tkts13 whole cells co-expressing RAMP3 incubated for 60 mins by scintillation proximity assay. Format: cell-based. In general terms: In a radioligand displacement assay an active substance lowers the binding of a labelled ligand.
The next data set has as its target T2, Calcitonin receptor (Homo sapiens, UniProt P30988).
T2 sequence (P30988 whole entry): T1 sequence (P30988 whole entry)
The experiment in a line: Agonist activity at human calcitonin receptor expressed in BHK570 cells assessed as increase in intracellular cAMP concentration incubated for 3 hrs in absence of albumin by CRE luciferase reporter gene assay. Format: functional, cell-based.

The nature of data set [10]: Solubility in 100 mM bistrispropane buffer at pH 7.0 incubated for 18 hrs by UPLC analysis. Format: physicochemical.

Numbered stars: 1 amine (or outer) side, 2 acyl side, 3 side chain; on linkers, the order of the positions; unused ones are H or OH. Peptide text beside a SMILES is read from it. * marks the point of attachment. C18 diacid = O=C(O)CCCCCCCCCCCCCCCCC(=O)*; γGlu = O=C(O)[C@H](CCC(=O)[*:2])N[*:1]; Palmitoyl = CCCCCCCCCCCCCCCC(=O)*

On to `CCCCCCCCCCCCCCCC(=O)N[C@@H](CCC(=O)O)C(=O)N[C@@H](C)C(=O)N[C@@H](CO)C(=O)N[C@@H](CCC(=O)O)C(=O)N[C@@H](CC(C)C)C(=O)N[C@@H](CO)C(=O)N[C@H](C(=O)N[C@@H](C)C(=O)N[C@@H](C)C(=O)N[C@@H](CC(C)C)C(=O)NCC(=O)N[C@@H](CCCNC(=N)N)C(=O)N[C@@H](CC(C)C)C(=O)N[C@@H](CO)C(=O)N[C@@H](C)C(=O)N[C@@H](CCC(=O)O)C(=O)N[C@@H](CC(C)C)C(=O)N[C@@H](Cc1cnc[nH]1)C(=O)N[C@@H](CCC(=O)O)C(=O)N[C@@H](CC(C)C)C(=O)N[C@@H](C)C(=O)N[C@H](C(=O)N[C@@H](CC(C)C)C(=O)N1CCC[C@H]1C(=O)N[C@@H](CCCNC(=N)N)C(=O)N[C@H](C(=O)N[C@@H](CCC(=O)O)C(=O)N[C@H](C(=O)NCC(=O)N1CCC[C@H]1C(=O)N[C@@H](CCC(=O)O)C(=O)N[C@@H](CO)C(=O)N1CCC[C@H]1C(N)=O)[C@@H](C)O)[C@@H](C)O)[C@@H](C)O)[C@@H](C)O` (Palmitoyl-EASELSTAALGRLSAELHELATLPRTETGPESP-NH2), for which the solubility at 18 h in [1], in data set [2], in data set [3], in data set [4], in data set [6] and in data set [7] was ≥ 200 µM each time. Besides, the solubility at 18 h in data set [8] and in data set [10] was ≥ 200 µM in each case. The EC50 was 0.01 nM in [5] and 0.013 nM at Calcitonin receptor. The IC50 in data set [9] is 0.435 nM.
For `CC(C)C[C@H](NC(=O)[C@H](CCC(=O)O)NC(=O)[C@H](Cc1cnc[nH]1)NC(=O)[C@H](CC(C)C)NC(=O)[C@H](CCC(=O)O)NC(=O)[C@H](C)NC(=O)[C@H](CO)NC(=O)[C@H](CC(C)C)NC(=O)[C@H](CCCNC(=N)N)NC(=O)CNC(=O)[C@H](CC(C)C)NC(=O)[C@@H](NC(=O)[C@H](C)NC(=O)[C@@H](NC(=O)[C@H](CO)NC(=O)[C@@H](NC(=O)[C@H](CCC(=O)O)NC(=O)[C@H](CO)NC(=O)[C@H](C)NC(=O)CC[C@H](NC(=O)CCCCCCCCCCCCCCCCC(=O)O)C(=O)O)C(C)C)[C@@H](C)O)C(C)C)C(=O)N[C@@H](C)C(=O)N[C@H](C(=O)N[C@@H](CC(C)C)C(=O)N1CCC[C@H]1C(=O)N[C@@H](CCCNC(=N)N)C(=O)N[C@H](C(=O)N[C@@H](CCC(=O)O)C(=O)N[C@H](C(=O)NCC(=O)N[C@@H](CO)C(=O)NCC(=O)N[C@@H](CO)C(=O)N1CCC[C@H]1C(N)=O)[C@@H](C)O)[C@@H](C)O)[C@@H](C)O` ({C18 diacid-γGlu}-ASEVSTAVLGRLSAELHELATLPRTETGSGSP-NH2), the solubility at 18 h in data set [1], in data set [2], in data set [3], in data set [4], in [6] and in data set [8] was ≥ 200 µM each time. The solubility at 18 h in data set [10] is ≥ 200 µM. Moreover, the 50% effective concentration (EC50) is 0.032 nM in [5] and 0.013 nM at Calcitonin receptor. Further, the IC50 in [9] was 0.812 nM.
Consider `CC[C@H](C)[C@H](NC(=O)[C@H](C)NC(=O)[C@@H](NC(=O)[C@H](CO)NC(=O)[C@@H](NC(=O)[C@H](CCC(=O)O)NC(=O)[C@H](CO)NC(=O)[C@H](C)NC(=O)[C@H](CCC(=O)O)NC(=O)CCCCCCCCCCCCCCCCC(=O)O)[C@@H](C)CC)[C@@H](C)O)C(=O)N[C@H](C(=O)NCC(=O)N[C@@H](CCCNC(=N)N)C(=O)N[C@@H](CC(C)C)C(=O)N[C@@H](CO)C(=O)N[C@@H](C)C(=O)N[C@@H](CCC(=O)O)C(=O)N[C@@H](CC(C)C)C(=O)N[C@@H](Cc1cnc[nH]1)C(=O)N[C@@H](CCC(=O)O)C(=O)N[C@H](C(=O)N[C@@H](C)C(=O)N[C@H](C(=O)N[C@@H](CC(C)C)C(=O)N1CCC[C@H]1C(=O)N[C@@H](CCCNC(=N)N)C(=O)N[C@H](C(=O)N[C@@H](CCC(=O)O)C(=O)N[C@H](C(=O)NCC(=O)N1CCC[C@H]1C(=O)N[C@@H](CCC(=O)O)C(=O)N[C@@H](CO)C(=O)N1CCC[C@H]1C(N)=O)[C@@H](C)O)[C@@H](C)O)[C@@H](C)O)[C@@H](C)CC)[C@@H](C)CC` ({C18 diacid}-EASEISTAIIGRLSAELHEIATLPRTETGPESP-NH2), for which the solubility at 18 h in [2], in data set [3], in [4], in [7], in data set [8] and in [10] was ≥ 200 µM throughout. Besides, the EC50 was 0.01 nM in [5] and 0.006 nM at Calcitonin receptor. Also, in data set [9], the half-inhibitory concentration (IC50) is 0.998 nM.
In the case of `CC[C@H](C)[C@H](NC(=O)[C@H](C)NC(=O)[C@@H](NC(=O)[C@H](CO)NC(=O)[C@H](CC(C)C)NC(=O)[C@H](CCC(=O)O)NC(=O)[C@H](CO)NC(=O)[C@H](C)NC(=O)[C@H](CCC(=O)O)NC(=O)CCCCCCCCCCCCCCCCC(=O)O)[C@@H](C)O)C(=O)N[C@@H](CC(C)C)C(=O)NCC(=O)N[C@@H](CCCNC(=N)N)C(=O)N[C@@H](CC(C)C)C(=O)N[C@@H](CO)C(=O)N[C@@H](C)C(=O)N[C@@H](CCC(=O)O)C(=O)N[C@@H](CC(C)C)C(=O)N[C@@H](Cc1cnc[nH]1)C(=O)N[C@@H](CCC(=O)O)C(=O)N[C@@H](CC(C)C)C(=O)N[C@@H](C)C(=O)N[C@H](C(=O)N[C@@H](CC(C)C)C(=O)N1CCC[C@H]1C(=O)N[C@@H](CCCNC(=N)N)C(=O)N[C@H](C(=O)N[C@@H](CCC(=O)O)C(=O)N[C@H](C(=O)NCC(=O)N1CCC[C@H]1C(=O)N[C@@H](CCC(=O)O)C(=O)N[C@@H](CO)C(=O)N1CCC[C@H]1C(N)=O)[C@@H](C)O)[C@@H](C)O)[C@@H](C)O` ({C18 diacid}-EASELSTAILGRLSAELHELATLPRTETGPESP-NH2), the solubility at 18 h in [1], in data set [2], in [3], in data set [4], in data set [7] and in data set [8] was ≥ 200 µM in each case. For the same compound, in data set [10], the solubility at 18 h is ≥ 200 µM. Further, the 50% effective concentration (EC50) in [5] was 0.016 nM; at Calcitonin receptor, 0.005 nM. In addition, the IC50 in data set [9] is 0.417 nM.
`CC(C)C[C@H](NC(=O)[C@H](CCC(=O)O)NC(=O)[C@H](Cc1cnc[nH]1)NC(=O)[C@H](CC(C)C)NC(=O)[C@H](CCC(=O)O)NC(=O)[C@H](C)NC(=O)[C@H](CO)NC(=O)[C@H](CC(C)C)NC(=O)[C@H](CCCNC(=N)N)NC(=O)CNC(=O)[C@H](CC(C)C)NC(=O)[C@@H](NC(=O)[C@H](C)NC(=O)[C@@H](NC(=O)[C@H](CO)NC(=O)[C@@H](NC(=O)[C@H](CCC(=O)O)NC(=O)[C@H](CO)NC(=O)[C@H](C)NC(=O)[C@H](CCC(=O)O)NC(=O)CCCCCCCCCCCCCCCCC(=O)O)C(C)C)[C@@H](C)O)C(C)C)C(=O)N[C@@H](C)C(=O)N[C@H](C(=O)N[C@@H](CC(C)C)C(=O)N1CCC[C@H]1C(=O)N[C@@H](CCCNC(=N)N)C(=O)N[C@H](C(=O)N[C@@H](CCC(=O)O)C(=O)N[C@H](C(=O)NCC(=O)N1CCC[C@H]1C(=O)N[C@@H](CCC(=O)O)C(=O)N[C@@H](CO)C(=O)N1CCC[C@H]1C(N)=O)[C@@H](C)O)[C@@H](C)O)[C@@H](C)O` ({C18 diacid}-EASEVSTAVLGRLSAELHELATLPRTETGPESP-NH2): the solubility at 18 h in data set [2], in data set [3], in data set [4], in data set [7], in [8] and in data set [10] was ≥ 200 µM in each case. Further, the 50% effective concentration (EC50) was 0.02 nM in data set [5] and 0.014 nM on Calcitonin receptor. Moreover, the half-inhibitory concentration (IC50) in data set [9] is 0.824 nM.

By solubility is commonly meant how much of the substance goes into solution per volume. Lower therefore signals a poorly soluble substance. One may read the EC50 as the concentration needed to bring the measured effect to its halfway point. For orientation: IC50 means the concentration that inhibits the measured activity by half.

Values taken from ChEMBL document CHEMBL4420076, “Amylin and calcitonin receptor agonist” (2017).
